Blank lines part the entries; values can stand above or below the compound they belong to.
Experiments:
[1] = target: T1, Cell division cycle 7-related protein kinase (Homo sapiens, UniProt O00311); test: Inhibition of N-terminus Myc-tagged human CDC7 expressed in Escherichia coli by chemiluminescence assay in presence of ATP
[2] = target: Casein kinase II alpha/beta (Homo sapiens, UniProt P68400); test: Inhibition of human tertrameric CK2alphabeta holoenzyme using casein as substrate after 1 to 2 hrs by chemiluminescence assay in presence of 2 uM ATP; type: protein-complex assay
Chain of Casein kinase II alpha/beta (P67870 whole entry): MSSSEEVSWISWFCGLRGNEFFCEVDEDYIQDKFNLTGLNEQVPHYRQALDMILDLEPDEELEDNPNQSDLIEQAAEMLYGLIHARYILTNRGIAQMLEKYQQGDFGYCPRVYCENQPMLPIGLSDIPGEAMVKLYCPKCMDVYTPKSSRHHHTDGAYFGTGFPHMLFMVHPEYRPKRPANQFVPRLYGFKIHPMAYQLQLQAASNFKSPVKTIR
Chain of Casein kinase II alpha/beta (P68400 whole entry): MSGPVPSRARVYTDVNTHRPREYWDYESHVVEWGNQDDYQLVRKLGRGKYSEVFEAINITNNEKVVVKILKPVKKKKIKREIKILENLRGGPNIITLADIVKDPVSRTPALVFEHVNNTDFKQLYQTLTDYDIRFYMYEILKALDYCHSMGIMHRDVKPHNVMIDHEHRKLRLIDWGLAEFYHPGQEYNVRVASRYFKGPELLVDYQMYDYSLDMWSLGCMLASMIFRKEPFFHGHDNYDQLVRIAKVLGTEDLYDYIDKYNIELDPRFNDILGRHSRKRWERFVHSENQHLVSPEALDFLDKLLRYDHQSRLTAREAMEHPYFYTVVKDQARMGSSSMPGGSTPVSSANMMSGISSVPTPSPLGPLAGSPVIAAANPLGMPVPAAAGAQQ

[3] = target: Serine/threonine-protein kinase pim-1 (Homo sapiens, UniProt P11309); test: Inhibition of N-terminus His-tagged human PIM1 expressed in Escherichia coli using AKRRRLSA as substrate after 1 to 2 hrs by chemiluminescence assay
Chain of Serine/threonine-protein kinase pim-1 (P11309 whole entry): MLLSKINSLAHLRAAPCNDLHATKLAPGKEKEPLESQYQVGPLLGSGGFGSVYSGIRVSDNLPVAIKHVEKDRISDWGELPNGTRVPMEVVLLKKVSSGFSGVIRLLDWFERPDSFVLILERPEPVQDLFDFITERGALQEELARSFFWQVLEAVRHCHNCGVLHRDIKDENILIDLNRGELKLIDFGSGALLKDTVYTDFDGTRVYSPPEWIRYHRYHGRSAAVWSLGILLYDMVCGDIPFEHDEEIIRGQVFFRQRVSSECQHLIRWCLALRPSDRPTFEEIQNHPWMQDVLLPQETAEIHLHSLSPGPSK

[4] = target: T1, Cell division cycle 7-related protein kinase; test: Inhibition of CDC7 in human MDA-MB-231T cells assessed as inhibition of MCM2 phosphorylation at Ser53 after 4 hrs; type: cell-based
[5] = Plasma concentration in mouse at 100 mg/kg, po measured after 1 hr; type: ADME, organism-based; set-up: dose 100 mg/kg, route oral
[6] = Plasma concentration in mouse at 100 mg/kg, po measured after 4 hrs; type: ADME, organism-based; set-up: dose 100 mg/kg, route oral
Caco-2 [7] = test: Induction of apoptosis in human Caco2 cells assessed as increase in caspase 3/7 activity; type: functional, cell-based
Caco-2 [8] = test: Antiproliferative activity against human Caco2 cells assessed as inhibition of anchorage-independent growth in soft agar; type: functional, cell-based
[9] = Cmax in rat at 3 mg/kg, po; type: ADME, organism-based; set-up: dose 3 mg/kg, route oral; details: in vivo
[10] = AUC in rat at 3 mg/kg, po; type: ADME, organism-based; set-up: dose 3 mg/kg, route oral; details: plasma
[11] = Clearance in rat; type: ADME, organism-based; details: in vivo
[12] = Volume of distribution at steady state in rat; type: ADME, organism-based; details: in vivo, read-out: Vdss
[13] = Half life in rat; type: ADME, organism-based; details: in vivo
[14] = Oral bioavailability in rat at 3 mg/kg; type: ADME, organism-based; details: in vivo
Mus musculus [15] = test: Inhibition of CDC7-mediated MCM2 phosphorylation at Ser40/41 in human Caco2 cells xenografted in athymic nude mouse at 3 mg/kg, po after 4 hrs by Western blot analysis; type: functional; details: Caco-2, 4 h
Mus musculus [16] = test: Inhibition of CDC7-mediated MCM2 phosphorylation at Ser40/41 in human Caco2 cells xenografted in po dosed athymic nude mouse by after 4 hrs Western blot analysis; type: functional; details: Caco-2, po
[17] = Plasma concentration in athymic nude mouse bearing human Caco2 cells at 3 mg/kg, po measured after 4 hrs; type: ADME, organism-based, Caco-2; set-up: dose 3 mg/kg, route oral
[18] = Plasma concentration in athymic nude mouse bearing human Caco2 cells at 10 mg/kg, po measured after 4 hrs; type: ADME, organism-based, Caco-2; set-up: dose 10 mg/kg, route oral
[19] = Plasma concentration in athymic nude mouse bearing human Caco2 cells at 30 mg/kg, po measured after 4 hrs; type: ADME, organism-based, Caco-2; set-up: dose 30 mg/kg, route oral
[20] = Plasma concentration in athymic nude mouse bearing human Caco2 cells at 100 mg/kg, po measured after 4 hrs; type: ADME, organism-based, Caco-2; set-up: dose 100 mg/kg, route oral
[21] = Drug uptake in tumor of Caco2 cells xenografted athymic nude mouse at 3 mg/kg, po measured after 4 hrs; type: ADME, organism-based, Neoplasm, Caco-2; set-up: dose 3 mg/kg, route oral; details: read-out: Drug uptake
[22] = Drug uptake in tumor of Caco2 cells xenografted athymic nude mouse at 10 mg/kg, po measured after 4 hrs; type: ADME, organism-based, Neoplasm, Caco-2; set-up: dose 10 mg/kg, route oral; details: read-out: Drug uptake
[23] = Drug uptake in tumor of Caco2 cells xenografted athymic nude mouse at 30 mg/kg, po measured after 4 hrs; type: ADME, organism-based, Neoplasm, Caco-2; set-up: dose 30 mg/kg, route oral; details: read-out: Drug uptake
[24] = Drug uptake in tumor of Caco2 cells xenografted athymic nude mouse at 100 mg/kg, po measured after 4 hrs; type: ADME, organism-based, Neoplasm, Caco-2; set-up: dose 100 mg/kg, route oral; details: read-out: Drug uptake
Caco-2 [25] = test: Antitumor activity against human Caco2 cells xenografted in athymic nude mouse assessed as tumor growth inhibition at 3 mg/kg, po QD administered for 14 days; type: functional; details: Caco-2, 336 h, read-out: GI
Caco-2 [26] = test: Antitumor activity against human Caco2 cells xenografted in athymic nude mouse assessed as tumor growth inhibition at 10 mg/kg, po QD administered for 14 days; type: functional; details: Caco-2, 336 h, read-out: GI
Caco-2 [27] = test: Antitumor activity against human Caco2 cells xenografted in athymic nude mouse assessed as tumor growth inhibition at 30 mg/kg, po QD administered for 14 days; type: functional; details: Caco-2, 336 h, read-out: GI
Caco-2 [28] = test: Antitumor activity against human Caco2 cells xenografted in athymic nude mouse assessed as tumor growth inhibition at 100 mg/kg, po QD administered for 14 days; type: functional; details: Caco-2, 336 h, read-out: GI
Caco-2 [29] = test: Antitumor activity against human Caco2 cells xenografted in athymic nude mouse assessed as tumor growth inhibition at 30 mg/kg, po BID administered for 14 days; type: functional; details: Caco-2, 336 h, read-out: GI
Caco-2 [30] = test: Antitumor activity against human Caco2 cells xenografted in athymic nude mouse assessed as tumor growth inhibition at 100 mg/kg, po Q2D administered for 14 days; type: functional; details: Caco-2, 336 h, read-out: GI
Caco-2 [31] = test: Antitumor activity against human Caco2 cells xenografted in athymic nude mouse assessed as tumor regression at 100 mg/kg, po QD administered for 14 days; type: functional
Caco-2 [32] = test: Antitumor activity against human Caco2 cells xenografted in athymic nude mouse assessed as tumor regression at 30 mg/kg, po BID administered for 14 days; type: functional
Caco-2 [33] = test: Antitumor activity against human Caco2 cells xenografted in athymic nude mouse assessed as tumor regression at 100 mg/kg, po Q2D administered for 14 days; type: functional
Mus musculus [34] = test: Toxicity in athymic nude mouse bearing human Caco2 cells assessed as decrease in body weight at 3 mg/kg, po QD administered for 14 days; type: organism-based, Caco-2; set-up: dose 3 mg/kg, route oral; scale not given: the % may be the effect or the level left; details: in vivo, 336 h
Mus musculus [35] = test: Toxicity in athymic nude mouse bearing human Caco2 cells assessed as decrease in body weight at 10 mg/kg, po QD administered for 14 days; type: organism-based, Caco-2; set-up: dose 10 mg/kg, route oral; scale not given: the % may be the effect or the level left; details: in vivo, 336 h
Mus musculus [36] = test: Toxicity in athymic nude mouse bearing human Caco2 cells assessed as decrease in body weight at 30 mg/kg, po QD administered for 14 days; type: organism-based, Caco-2; set-up: dose 30 mg/kg, route oral; scale not given: the % may be the effect or the level left; details: in vivo, 336 h
Mus musculus [37] = test: Toxicity in athymic nude mouse bearing human Caco2 cells assessed as decrease in body weight at 100 mg/kg, po QD administered for 14 days; type: organism-based, Caco-2; set-up: dose 100 mg/kg, route oral; scale not given: the % may be the effect or the level left; details: in vivo, 336 h
Mus musculus [38] = test: Toxicity in athymic nude mouse bearing human Caco2 cells assessed as decrease in body weight at 30 mg/kg, po BID administered for 14 days; type: organism-based, Caco-2; set-up: dose 30 mg/kg, route oral; scale not given: the % may be the effect or the level left; details: in vivo, 336 h
Mus musculus [39] = test: Toxicity in athymic nude mouse bearing human Caco2 cells assessed as decrease in body weight at 100 mg/kg, po Q2D administered for 14 days; type: organism-based, Caco-2; set-up: dose 100 mg/kg, route oral; scale not given: the % may be the effect or the level left; details: in vivo, 336 h
Cytochrome P450 3A4 = Cytochrome P450 3A4 (Homo sapiens, UniProt P08684); test: Inhibition of CYP3A4; type: ADME
Chain of Cytochrome P450 3A4 (P08684 whole entry): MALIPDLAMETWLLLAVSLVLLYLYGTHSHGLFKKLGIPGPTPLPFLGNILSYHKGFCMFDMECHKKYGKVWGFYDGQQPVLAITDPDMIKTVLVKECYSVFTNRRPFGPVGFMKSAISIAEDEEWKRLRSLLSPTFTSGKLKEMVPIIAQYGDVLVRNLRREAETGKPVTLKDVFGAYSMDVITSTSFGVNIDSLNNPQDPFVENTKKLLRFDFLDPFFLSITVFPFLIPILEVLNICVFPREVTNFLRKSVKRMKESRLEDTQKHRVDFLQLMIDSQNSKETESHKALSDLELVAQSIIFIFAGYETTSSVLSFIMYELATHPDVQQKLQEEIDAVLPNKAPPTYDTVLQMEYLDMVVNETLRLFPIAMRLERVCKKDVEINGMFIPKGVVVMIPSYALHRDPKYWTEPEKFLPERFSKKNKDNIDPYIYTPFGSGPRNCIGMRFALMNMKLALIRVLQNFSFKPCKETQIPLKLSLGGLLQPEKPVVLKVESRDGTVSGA

Cytochrome P450 2C9 = Cytochrome P450 2C9 (Homo sapiens, UniProt P11712); test: Inhibition of CYP2C9; type: ADME
Chain of Cytochrome P450 2C9 (P11712 whole entry): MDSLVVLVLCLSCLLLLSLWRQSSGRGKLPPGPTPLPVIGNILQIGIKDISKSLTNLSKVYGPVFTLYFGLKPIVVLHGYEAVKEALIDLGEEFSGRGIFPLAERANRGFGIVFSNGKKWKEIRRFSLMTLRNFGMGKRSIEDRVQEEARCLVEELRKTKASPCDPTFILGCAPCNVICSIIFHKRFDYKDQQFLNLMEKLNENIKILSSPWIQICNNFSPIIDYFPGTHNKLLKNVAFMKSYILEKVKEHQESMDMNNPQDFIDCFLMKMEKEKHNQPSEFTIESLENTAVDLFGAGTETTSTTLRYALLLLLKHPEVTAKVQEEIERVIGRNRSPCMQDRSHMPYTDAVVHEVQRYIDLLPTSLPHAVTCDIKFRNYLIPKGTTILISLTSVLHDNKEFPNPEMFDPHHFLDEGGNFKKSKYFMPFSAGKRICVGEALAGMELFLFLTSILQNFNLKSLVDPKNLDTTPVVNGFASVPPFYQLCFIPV

Cytochrome P450 2D6 = Cytochrome P450 2D6 (Homo sapiens, UniProt P10635); test: Inhibition of CYP2D6; type: ADME
Chain of Cytochrome P450 2D6 (P10635 whole entry): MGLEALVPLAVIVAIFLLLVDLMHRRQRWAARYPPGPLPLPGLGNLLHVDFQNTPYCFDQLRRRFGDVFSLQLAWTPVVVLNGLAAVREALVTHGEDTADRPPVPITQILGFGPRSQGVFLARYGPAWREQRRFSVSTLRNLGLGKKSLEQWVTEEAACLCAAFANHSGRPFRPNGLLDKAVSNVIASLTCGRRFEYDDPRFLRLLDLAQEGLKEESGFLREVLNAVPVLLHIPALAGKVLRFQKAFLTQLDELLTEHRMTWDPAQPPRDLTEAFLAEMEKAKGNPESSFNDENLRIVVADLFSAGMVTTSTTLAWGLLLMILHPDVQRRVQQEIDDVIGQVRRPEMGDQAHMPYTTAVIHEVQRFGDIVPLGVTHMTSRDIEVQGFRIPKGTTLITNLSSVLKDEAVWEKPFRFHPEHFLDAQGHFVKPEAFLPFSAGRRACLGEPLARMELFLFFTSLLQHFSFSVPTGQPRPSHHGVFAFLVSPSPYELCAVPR

Cytochrome P450 2C19 = Cytochrome P450 2C19 (Homo sapiens, UniProt P33261); test: Inhibition of CYP2C19; type: ADME
Chain of Cytochrome P450 2C19 (P33261 whole entry): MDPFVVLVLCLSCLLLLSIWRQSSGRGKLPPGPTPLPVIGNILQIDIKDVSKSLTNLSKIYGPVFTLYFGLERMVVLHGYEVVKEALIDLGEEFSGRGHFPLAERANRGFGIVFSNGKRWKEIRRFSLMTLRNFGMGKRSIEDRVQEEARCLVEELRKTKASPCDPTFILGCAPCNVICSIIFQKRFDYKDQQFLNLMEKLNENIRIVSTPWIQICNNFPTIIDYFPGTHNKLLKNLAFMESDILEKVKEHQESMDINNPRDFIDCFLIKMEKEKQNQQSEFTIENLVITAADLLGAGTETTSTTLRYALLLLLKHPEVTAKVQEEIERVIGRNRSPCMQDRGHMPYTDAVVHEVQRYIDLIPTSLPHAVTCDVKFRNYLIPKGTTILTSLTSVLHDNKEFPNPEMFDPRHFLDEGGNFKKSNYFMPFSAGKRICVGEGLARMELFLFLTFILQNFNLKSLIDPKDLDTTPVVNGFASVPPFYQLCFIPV

Cytochrome P450 1A2 = target: T2, Cytochrome P450 1A2 (Homo sapiens, UniProt P05177); test: Inhibition of CYP1A2; type: ADME
T2 sequence (P05177 whole entry): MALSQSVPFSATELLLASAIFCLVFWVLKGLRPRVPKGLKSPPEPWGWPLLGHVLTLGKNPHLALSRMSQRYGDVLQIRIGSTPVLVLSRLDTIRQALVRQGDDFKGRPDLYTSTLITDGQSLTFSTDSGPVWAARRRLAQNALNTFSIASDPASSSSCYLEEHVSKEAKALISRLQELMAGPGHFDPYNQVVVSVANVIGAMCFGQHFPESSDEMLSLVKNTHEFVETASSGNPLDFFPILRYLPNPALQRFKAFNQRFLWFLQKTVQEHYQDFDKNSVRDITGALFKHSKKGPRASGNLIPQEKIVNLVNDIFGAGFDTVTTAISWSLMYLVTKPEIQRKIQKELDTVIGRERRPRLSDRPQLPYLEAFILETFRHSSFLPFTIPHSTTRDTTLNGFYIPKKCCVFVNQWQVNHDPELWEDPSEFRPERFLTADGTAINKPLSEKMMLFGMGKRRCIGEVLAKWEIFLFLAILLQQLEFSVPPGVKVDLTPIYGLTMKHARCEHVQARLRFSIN

[40] = target: T1, Cell division cycle 7-related protein kinase; test: Inhibition of CDC7 in human Caco2 cells assessed as inhibition of MCM2 phosphorylation at Ser53 after 4 hrs; type: cell-based, Caco-2
Caco-2 [41] = test: Antiproliferative activity against human Caco2 cells after 3 days by BrdU incorporation assay; type: functional, cell-based; details: Caco-2, 72 h
Caco-2 [42] = test: Antiproliferative activity against human Caco2 cells assessed as decrease in cell viability after 3 days by Cell Titer-Glo assay; type: functional, cell-based; details: Caco-2, 72 h

T1 sequence (O00311 whole entry): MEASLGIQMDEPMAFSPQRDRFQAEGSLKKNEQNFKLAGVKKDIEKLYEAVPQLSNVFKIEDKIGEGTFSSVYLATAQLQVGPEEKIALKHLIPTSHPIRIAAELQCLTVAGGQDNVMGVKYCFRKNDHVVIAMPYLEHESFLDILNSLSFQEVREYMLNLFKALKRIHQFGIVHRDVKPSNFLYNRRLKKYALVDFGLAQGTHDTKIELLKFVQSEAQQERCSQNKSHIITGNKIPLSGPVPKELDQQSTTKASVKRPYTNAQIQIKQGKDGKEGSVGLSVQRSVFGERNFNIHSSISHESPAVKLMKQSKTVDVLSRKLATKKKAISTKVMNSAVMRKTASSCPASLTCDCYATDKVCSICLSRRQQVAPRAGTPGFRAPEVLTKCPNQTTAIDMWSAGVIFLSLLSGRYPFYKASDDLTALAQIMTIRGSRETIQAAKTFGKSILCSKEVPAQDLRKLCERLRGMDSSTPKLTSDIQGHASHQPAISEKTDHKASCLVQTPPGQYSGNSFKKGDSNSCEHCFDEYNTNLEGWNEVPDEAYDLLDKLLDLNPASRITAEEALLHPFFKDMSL

SMILES: O=c1[nH]c([C@@H]2CCCN2)nc2c1oc1ccc(Br)cc12
- IC50 [1]: 4.8 nM
- IC50 [2]: 91 nM
- IC50 [3]: 31 nM
- IC50 [4]: 75 nM
- concentration at 1 h [5]: 195 µM
- concentration at 4 h [6]: 71 µM

SMILES: O=c1[nH]c(CN2CC[C@H](O)C2)nc2c1oc1cc(O)c(Br)cc12
- IC50 [1]: 1000 nM
- concentration at 1 h [5]: 1.4 µM
- concentration at 4 h [6]: 0.15 µM

SMILES: O=C(O)C1CCN(Cc2nc3c(oc4ccc(Br)cc43)c(=O)[nH]2)C1 (racemic)
- IC50 [1]: 13 nM
- IC50 [2]: 49 nM
- IC50 [3]: 142 nM
- IC50 [4]: > 40000 nM

SMILES: CO[C@H]1CCN(Cc2nc3c(oc4ccc(Br)cc43)c(=O)[nH]2)C1
- IC50 [1]: 11 nM
- IC50 [2]: 512 nM
- IC50 [3]: 77 nM
- IC50 [4]: 362 nM

Now those with a lower IC50 [1], led by results:

- EC50 (Caco-2 [7]): 2290 nM
- IC50 (Caco-2 [8]): 715 nM
- Cmax [9]: 8.61 µM
- AUC [10]: 75 µM·h
- clearance [11]: 1.95 mL/min/kg
- Vd [12]: 0.55 L/kg
- half-life [13]: 2.32 h
- bioavailability [14]: 95%
- concentration at 4 h [17]: 11 µM
- concentration at 4 h [18]: 40.1 µM
- concentration at 4 h [19]: 82.2 µM
- concentration at 4 h [20]: 186 µM
- concentration at 4 h [21]: 3.2 µM
- concentration at 4 h [22]: 13.1 µM
- concentration at 4 h [23]: 32.1 µM
- concentration at 4 h [24]: 71.4 µM
- IC50 (Cytochrome P450 3A4): > 50000 nM
- IC50 (Cytochrome P450 2C9): > 50000 nM
- IC50 (Cytochrome P450 2D6): > 50000 nM
- IC50 (Cytochrome P450 2C19): > 50000 nM
- IC50 (Cytochrome P450 1A2): 6900 nM
- IC50 [1]: 3.4 nM
- IC50 [2]: 215 nM
- IC50 [3]: 42 nM
- IC50 [4]: 118 nM
- concentration at 1 h [5]: 141 µM
- concentration at 4 h [6]: 81 µM
- IC50 [40]: 140 nM
- IC50 (Caco-2 [41]): 2680 nM
- IC50 (Caco-2 [42]): 2140 nM
SMILES: O=c1[nH]c([C@@H]2CCCN2)nc2c1oc1ccc(Cl)cc12
- inhibition in vivo at 3 mg/kg (Mus musculus [15]): 70%
- ED50 (Mus musculus [16]): < 3 mg/kg
- inhibition in vivo at 3 mg/kg (Caco-2 [25]): 8.7%
- inhibition in vivo at 10 mg/kg (Caco-2 [26]): 36%
- inhibition in vivo at 30 mg/kg (Caco-2 [27]): 83%
- inhibition in vivo at 100 mg/kg (Caco-2 [28]): > 100%
- inhibition in vivo at 30 mg/kg (Caco-2 [29]): > 100%
- inhibition in vivo at 100 mg/kg (Caco-2 [30]): > 100%
- Activity (Caco-2 [31]): 70%
- Activity (Caco-2 [32]): 32%
- Activity (Caco-2 [33]): 21%
- Activity (Mus musculus [34]): 0.5%
- Activity (Mus musculus [35]): 3.4%
- Activity (Mus musculus [36]): 8.3%
- Activity (Mus musculus [37]): 4.7%
- Activity (Mus musculus [38]): 6.4%
- Activity (Mus musculus [39]): 4.5%

- IC50 [1]: 3.7 nM
- IC50 [2]: 238 nM
- IC50 [3]: 46 nM
- IC50 [4]: 82 nM
- concentration at 1 h [5]: 82 µM
- concentration at 4 h [6]: 46 µM
SMILES: O=c1[nH]c([C@@H]2C[C@@H](F)CN2)nc2c1oc1ccc(Br)cc12

Reference: ChEMBL document CHEMBL2029277, “Discovery of XL413, a potent and selective CDC7 inhibitor” (Bioorg Med Chem Lett, 2012)
